Publication PMC11266714, “Extraction optimization and reactivity of 7α-acetoxy-6β-hydroxyroyleanone and ability of its derivatives to modulate PKC isoforms” (Scientific Reports, 2024)
Like-named read-outs stand apart in the source and are kept apart here. Blank lines part the entries; values can stand above or below the compound they belong to.

Legend:
[1] = test system: MCF-7 human breast adenocarcinoma cells; test: Sulforhodamine B (SRB) cell proliferation assay, MCF-7; format: cell-based
Experimental: (§1) The cytotoxic effect (IC50 values, Table 4) was determined from dose–response curves.
(§2) Royleanones and doxorubicin (Doxo) were tested on human breast adenocarcinoma lines. […] HFF‐1 cells were cultured in DMEM/F‐12 supplemented with 10% FBS. All cells were maintained at 37 °C in a humidified atmosphere of 5% CO2. Cells were routinely tested for mycoplasma infection using the MycoAlert™ PLUS mycoplasma detection kit (Lonza).
(§3) For the evaluation of the effect of the compounds on cell proliferation, the SRB assay was performed. […] Cells were treated for 48 h with serial dilutions of the compounds (ranging from 0.1 to 30.0 µM). The effects on cell proliferation were assessed by SRB assay, as described, and IC50 values were determined for each cell line using the GraphPad Prism software version 7.0 (La Jolla, CA, USA).

[2] = test system: non-tumorigenic foreskin fibroblasts HFF-1 cells; test: Sulforhodamine B (SRB) cell proliferation assay, HFF-1; format: cell-based, human
Experimental: as §1, §2, §3

[3] = test system: MDA-MB-231 human breast adenocarcinoma cells; test: Sulforhodamine B (SRB) cell proliferation assay, MDA-MB-231; format: cell-based
Experimental: as §1, §2, §3

[4] = test system: MDA-MB-468 human breast adenocarcinoma cells; test: Sulforhodamine B (SRB) cell proliferation assay, MDA-MB-468; format: cell-based
Experimental: as §1, §2, §3

PKC-ζ = molecular target: T1, PKC-ζ (Mus musculus, UniProt Q02956); test: Yeast PKC assay, PKC-ζ; format: cell-based
T1 construct: expressed in transfected cells; host or cells: Saccharomyces cerevisiae
T1 sequence (Q02956 1-592): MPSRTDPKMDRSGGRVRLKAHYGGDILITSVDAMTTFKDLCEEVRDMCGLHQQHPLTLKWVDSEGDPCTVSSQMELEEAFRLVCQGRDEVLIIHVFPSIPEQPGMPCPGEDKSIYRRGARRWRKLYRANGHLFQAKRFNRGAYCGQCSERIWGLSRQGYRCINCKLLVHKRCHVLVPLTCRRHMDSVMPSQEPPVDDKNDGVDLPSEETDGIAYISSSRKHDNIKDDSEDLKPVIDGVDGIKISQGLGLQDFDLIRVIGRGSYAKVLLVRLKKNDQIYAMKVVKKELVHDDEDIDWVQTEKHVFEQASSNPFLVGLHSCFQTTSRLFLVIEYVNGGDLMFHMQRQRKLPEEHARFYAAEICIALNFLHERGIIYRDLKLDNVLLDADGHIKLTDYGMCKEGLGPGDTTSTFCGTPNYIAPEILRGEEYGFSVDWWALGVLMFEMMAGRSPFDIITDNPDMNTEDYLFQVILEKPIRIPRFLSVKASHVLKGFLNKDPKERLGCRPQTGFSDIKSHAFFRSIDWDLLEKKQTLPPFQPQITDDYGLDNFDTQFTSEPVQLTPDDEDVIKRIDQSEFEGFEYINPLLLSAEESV
Text: (§4) PKC isoforms are key targets for cancer therapy due to their significant roles in cancer development and progression. The selective-PKC-δ activation observed for RoyBz is well established. Nonetheless, it is important to understand the effect of Roy on PKC isoforms. Due to the specificity of the assay, it was decided to evaluate only few compounds: the natural ones Roy and DeRoy and two derivatives, one aromatic ester RoyBz and one aliphatic ester RoyPr[27] as PKC-α, -βI, -δ, -ε, and -ζ activators using the yeast PKC assay.
(§5) For the determination of EC50 values were considered the concentration of compound that caused 50% of the maximal growth inhibition caused by the positive controls (phorbol 12-myristate 13-acetate, PMA, for cPKCs and nPKCs; arachidonic acid, ARA, for PKCζ), which was set as 100%. Data are mean ± SEM of four independent experiments. nt, not tested; ND, non-determinable (when the maximal response achieved was lower than 50% growth inhibition).
(§6) The royleanones Roy, RoyBz and RoyPr were tested on the yeast assay as reported in[3]. Briefly, Saccharomyces cerevisiae cells individually expressing mammalian PKC-α, -βI, -δ, -ε, or -ζ, and control yeast (transformed with empty vector) obtained in previous works were used. Cells were grown in galactose selective medium in the presence of 0.1—30 μM of compounds (or 0.1% DMSO only) for approximately 42 h. Yeast growth was analyzed by counting the number of colony-forming units, after 2 days incubation at 30 °C. The growth of yeast transformed with the empty vector (control) was considered as 100%. From the dose–response curves obtained, EC50 (half maximal effective concentration) values were determined for the tested compounds.

PKC-δ [5] = molecular target: T2, PKC-δ (Rattus norvegicus, UniProt P09215); parameters: method as in PMID 29348560; settings: yeast PKC assay; cited from earlier work
T2 construct: expressed in transfected cells; host or cells: Saccharomyces cerevisiae

[6] = test system: MCF-7 human breast adenocarcinoma cells; settings: cited from earlier work
PKC-ε = molecular target: T3, PKC-ε (Homo sapiens, UniProt Q02156); test: Yeast PKC assay, PKC-ε; format: cell-based
T3 construct: expressed in transfected cells; host or cells: Saccharomyces cerevisiae
T3 sequence (Q02156 1-737): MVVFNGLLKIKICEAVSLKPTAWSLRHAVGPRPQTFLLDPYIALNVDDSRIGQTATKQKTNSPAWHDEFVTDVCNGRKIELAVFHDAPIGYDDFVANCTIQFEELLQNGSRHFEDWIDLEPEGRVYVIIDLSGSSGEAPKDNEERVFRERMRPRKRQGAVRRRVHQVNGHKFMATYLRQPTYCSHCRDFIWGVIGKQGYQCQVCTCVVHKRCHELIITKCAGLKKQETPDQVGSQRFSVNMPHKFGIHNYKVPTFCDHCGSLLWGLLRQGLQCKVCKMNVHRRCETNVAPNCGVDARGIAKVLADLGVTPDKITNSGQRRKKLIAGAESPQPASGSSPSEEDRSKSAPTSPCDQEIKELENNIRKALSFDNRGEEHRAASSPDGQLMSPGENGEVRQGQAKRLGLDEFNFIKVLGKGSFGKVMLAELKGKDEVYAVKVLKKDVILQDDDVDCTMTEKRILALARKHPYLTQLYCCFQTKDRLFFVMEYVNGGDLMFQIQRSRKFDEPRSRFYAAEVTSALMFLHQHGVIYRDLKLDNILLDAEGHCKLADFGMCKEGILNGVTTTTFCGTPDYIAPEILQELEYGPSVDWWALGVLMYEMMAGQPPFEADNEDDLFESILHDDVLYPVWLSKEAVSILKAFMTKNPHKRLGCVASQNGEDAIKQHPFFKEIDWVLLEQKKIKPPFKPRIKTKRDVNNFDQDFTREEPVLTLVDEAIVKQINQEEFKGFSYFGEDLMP
Text: as §4, §5, §6

PKC-δ [7] = molecular target: T2, PKC-δ; test: Yeast PKC assay, PKC-δ; format: cell-based
Text: as §4, §5, §6

PKC-α = molecular target: T4, PKC-α (Bos taurus, UniProt P04409); test: Yeast PKC assay, PKC-α; format: cell-based, yeast (Saccharomyces cerevisiae)
T4 construct: expressed in transfected cells; host or cells: Saccharomyces cerevisiae
Text: as §4, §5, §6

PKC-βI = molecular target: T5, PKC-βI (Rattus norvegicus, UniProt P68403); test: Yeast PKC assay, PKC-βI; format: cell-based, yeast (Saccharomyces cerevisiae)
T5 construct: expressed in transfected cells; host or cells: Saccharomyces cerevisiae
Text: as §4, §5, §6

[8] = Homo sapiens, MCF7, 48 h treatment
[9] = Homo sapiens, MDA-MB-231, 48 h, 48 h treatment
[10] = Homo sapiens, MDA-MB-468, 48 h, 48 h treatment
[11] = yeast growth inhibition, 50% of maximal effect of ARA, mean ± SEM, four experiments, ND = maximal response lower than 50% growth inhibition, read-out: EC50 (nM) PKC-ζ
[12] = Homo sapiens, HFF-1, 48 h treatment
[13] = Homo sapiens, MDA-MB-231, 48 h treatment
[14] = Homo sapiens, MDA-MB-468, 48 h treatment
[15] = yeast growth inhibition, 50% of maximal effect of PMA, mean ± SEM, four experiments, ND = maximal response lower than 50% growth inhibition, read-out: EC50 (nM) PKC-ε
[16] = yeast growth inhibition, 50% of maximal effect of PMA, mean ± SEM, four experiments, ND = maximal response lower than 50% growth inhibition, read-out: EC50 (nM) PKC-δ
[17] = yeast growth inhibition, 50% of maximal effect of PMA, mean ± SEM, four experiments, ND = maximal response lower than 50% growth inhibition, read-out: EC50 (nM) PKC-α
[18] = yeast growth inhibition, 50% of maximal effect of PMA, mean ± SEM, four experiments, ND = maximal response lower than 50% growth inhibition, read-out: EC50 (nM) PKC-βI

T2 sequence (P09215 whole entry): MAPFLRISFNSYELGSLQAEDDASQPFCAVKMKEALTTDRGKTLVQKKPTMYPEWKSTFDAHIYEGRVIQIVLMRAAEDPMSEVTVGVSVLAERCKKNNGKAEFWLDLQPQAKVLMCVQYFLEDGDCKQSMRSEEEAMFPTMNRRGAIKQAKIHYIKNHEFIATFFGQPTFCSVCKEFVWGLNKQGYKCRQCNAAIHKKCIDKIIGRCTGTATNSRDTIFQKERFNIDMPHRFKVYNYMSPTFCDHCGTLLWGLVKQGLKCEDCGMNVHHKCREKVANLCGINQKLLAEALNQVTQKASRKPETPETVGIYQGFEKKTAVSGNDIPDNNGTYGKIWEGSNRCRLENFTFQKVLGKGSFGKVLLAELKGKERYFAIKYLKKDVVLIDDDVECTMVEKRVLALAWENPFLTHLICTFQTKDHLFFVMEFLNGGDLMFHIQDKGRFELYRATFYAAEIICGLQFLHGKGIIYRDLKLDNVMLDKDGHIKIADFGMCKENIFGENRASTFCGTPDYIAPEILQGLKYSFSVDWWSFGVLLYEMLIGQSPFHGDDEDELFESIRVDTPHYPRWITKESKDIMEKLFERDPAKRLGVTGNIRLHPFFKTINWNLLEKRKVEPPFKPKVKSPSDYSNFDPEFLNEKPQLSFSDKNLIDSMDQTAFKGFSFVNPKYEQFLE
T5 sequence (P68403 whole entry): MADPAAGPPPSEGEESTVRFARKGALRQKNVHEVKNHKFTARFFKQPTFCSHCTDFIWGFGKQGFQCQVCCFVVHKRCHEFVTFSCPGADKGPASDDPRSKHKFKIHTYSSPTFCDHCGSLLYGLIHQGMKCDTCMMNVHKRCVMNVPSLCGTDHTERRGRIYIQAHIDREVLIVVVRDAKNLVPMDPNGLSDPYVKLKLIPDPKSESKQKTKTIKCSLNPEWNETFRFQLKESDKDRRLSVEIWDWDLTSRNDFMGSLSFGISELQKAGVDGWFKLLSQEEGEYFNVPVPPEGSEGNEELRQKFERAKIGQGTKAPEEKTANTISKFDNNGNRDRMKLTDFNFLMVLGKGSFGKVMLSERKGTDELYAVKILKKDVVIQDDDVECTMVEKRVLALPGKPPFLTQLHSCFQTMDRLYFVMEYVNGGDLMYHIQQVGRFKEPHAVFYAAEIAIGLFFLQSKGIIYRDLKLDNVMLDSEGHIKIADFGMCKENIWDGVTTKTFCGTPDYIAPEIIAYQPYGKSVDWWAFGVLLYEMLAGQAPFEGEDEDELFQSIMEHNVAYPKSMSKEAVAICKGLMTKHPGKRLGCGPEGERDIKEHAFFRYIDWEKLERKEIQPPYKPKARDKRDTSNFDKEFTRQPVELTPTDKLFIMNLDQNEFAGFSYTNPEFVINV

Structure (SMILES): CC(=O)OC1=C(C(C)C)C(=O)C2=C(C1=O)C1(C)CCCC(C)(C)C1C(O)C2OC(C)=O (stereo not drawn) [Roy-12-Ac, 7α-acetoxy-6β-hydroxy-12-O-acetylroyleanone]
- IC50 ([1]; 48 h treatment): 5.67 ± 0.24 µM
- IC50 ([2]; 48 h treatment): 600 ± 40 nM
- IC50 ([3]; 48 h treatment): 2430 ± 150 nM
- IC50 ([4]; 48 h treatment): 1600 ± 160 nM

- IC50 [1, 8]: > 20 µM
- IC50 [3, 9]: > 20000 nM
- IC50 [4, 10]: > 20000 nM
Structure (SMILES): CC(C)C1=C(O)C(=O)C2=C(C1=O)[C@H](O)[C@@H](O)[C@H]1C(C)(C)CCC[C@]21C [DiRoy, 6β,7α-dihydroxyroyleanone]

- EC50 (PKC-ζ; [11]): 205 ± 32.6 nM
Structure (SMILES): CCCCC/C=C\C/C=C\C/C=C\C/C=C\CCCC(=O)O [ARA, arachidonic acid, reference compound]

Structure (SMILES): CC(=O)O[C@H]1C2=C(C(=O)C(OC(=O)c3ccccc3)=C(C(C)C)C2=O)[C@@]2(C)CCCC(C)(C)[C@@H]2[C@@H]1O [Roy-12-Bz, 7α-acetoxy-6β-hydroxy-12-O-benzoylroyleanone]
- IC50 [1, 8]: 4.32 ± 0.24 µM
- IC50 [2, 12]: 1160 ± 220 nM
- IC50 [3, 9]: 1650 ± 150 nM
- IC50 [4, 10]: 1280 nM

Structure (SMILES): CC(=O)O[C@H]1C2=C(C(=O)C(OC(=O)c3ccccc3)=C(C(C)C)C2=O)[C@@]2(C)CCCC(C)(C)[C@@H]2[C@@H]1OC(=O)c1ccccc1 [RoyBz, 7α-acetoxy-6β-benzoyloxy-12-O-benzoylroyleanone]
- IC50 [1, 8]: 1.66 ± 0.1 µM
- EC50 (PKC-δ [5]): 108 nM
- IC50 [2, 12]: 3580 ± 270 nM
- IC50 [3, 13]: 1500 ± 850 nM
- IC50 [4, 14]: 1400 ± 80 nM

Structure (SMILES): CC(C)C1=C(O)C(=O)C2=C(C=C[C@H]3C(C)(C)CCC[C@]23C)C1=O [DeRoy, 6,7-dehydroroyleanone]
- IC50 [6]: 60.4 ± 3.69 µM
- EC50 (PKC-ε; [15]): 5.8 ± 0.7 nM
- EC50 (PKC-δ [7]; [16]): 3.1 ± 0.6 nM
- EC50 (PKC-α; [17]): 15 ± 1.9 nM
- EC50 (PKC-ζ): 43.8 ± 2.32 nM

Structure (SMILES): CC(=O)OC1C2=C(C(=O)C(O)=C(C(C)C)C2=O)C2(C)CCCC(C)(C)C2C1O (stereo not drawn) [Roy, 7α-acetoxy-6β-hydroxyroyleanone]
- EC50 (PKC-ε; [15]): 994 ± 63 nM
- IC50 [1, 8]: 2.09 ± 0.42 µM
- IC50 [2, 12]: 1020 ± 280 nM
- IC50 ([3]; 48 h treatment): 350 ± 120 nM
- IC50 [3, 9]: 300 nM
- EC50 (PKC-α; [17]): 350 ± 42 nM
- IC50 ([4]; 48 h treatment): 300 ± 160 nM
- IC50 [4, 10]: 350 nM
- EC50 (PKC-βI; [18]): 423 ± 67 nM
- EC50 (PKC-ζ; [11]): 4110 ± 159 nM

Structure (SMILES): CC(=O)OC1=C(C(C)C)C(=O)C2=C(C1=O)C1(C)CCCC(C)(C)C1C(OC(C)=O)C2OC(C)=O (stereo not drawn) [RoyAc, 7α,6β-diacetoxy-12-O-acetylroyleanone]
- IC50 ([1]; 48 h treatment): 4.25 ± 0.57 µM
- IC50 ([2]; 48 h treatment): 4970 ± 340 nM
- IC50 ([3]; 48 h treatment): 1860 ± 90 nM
- IC50 ([4]; 48 h treatment): 3250 ± 200 nM

Structure (SMILES): CCCCCCCCCCCCCC(=O)O[C@@H]1[C@@H](C)[C@@]2(O)[C@@H](C=C(CO)C[C@]3(O)C(=O)C(C)=C[C@@H]23)[C@@H]2C(C)(C)[C@]12OC(C)=O [PMA, phorbol 12-myristate 13-acetate, reference compound]
- EC50 (PKC-ε): 1680 ± 46.5 nM
- EC50 (PKC-δ [7]): 574 ± 36.7 nM
- EC50 (PKC-α): 112 ± 18.4 nM
- EC50 (PKC-βI): 243 ± 69.1 nM

- IC50 [1, 8]: 0.6 ± 0.01 µM
- IC50 [3, 13]: 1200 ± 50 nM
- IC50 [4, 14]: 300 ± 40 nM
Structure (SMILES): COc1cccc2c1C(=O)c1c(O)c3c(c(O)c1C2=O)C[C@@](O)(C(=O)CO)C[C@@H]3O[C@H]1C[C@H](N)[C@H](O)[C@H](C)O1 [Doxo, Doxorubicin, reference compound]
- IC50 [2, 12]: 100 ± 120 nM

Structure (SMILES): CCC(=O)OC1=C(C(C)C)C(=O)C2=C(C1=O)C1(C)CCCC(C)(C)C1C(OC(=O)CC)C2OC(C)=O (stereo not drawn) [RoyPr, 7α-acetoxy-6β-propanoyloxy-12-O-propanoylroyleanone]
- IC50 [6]: 28.3 ± 2.4 µM
- EC50 (PKC-ε; [15]): 770 ± 46 nM
- EC50 (PKC-δ [7]; [16]): 325 ± 49 nM
- EC50 (PKC-α; [17]): 195 ± 16 nM
- EC50 (PKC-βI; [18]): 229 ± 21 nM
